Numbers after ± are expanded uncertainties.
What was measured:
[1] = Liquid; for viscosity / mass density: 101.3 kPa; for viscosity: Capillary tube (Ostwald / Ubbelohde) method; for mass density: Pycnometric method; for vapor or sublimation pressure: Ebulliometric method (Recirculating still)
[2] = xn = mol fraction of the nth substance listed; conditions: 101.3 kPa, Liquid, x1 = 1; for viscosity: Capillary tube (Ostwald / Ubbelohde) method; for mass density: Pycnometric method

`CC(=O)C1CCOC1=O` (centres undefined) [2-acetylbutyrolactone] showed a viscosity ([1]; 303.15 K) of 3.794 ± 0.079 mPa·s, a mass density ([1]; 303.15 K) of 1185.7 ± 1.1 kg/m3 and a viscosity ([1]; 313.15 K) of 3.424 ± 0.072 mPa·s. The mass density ([1]; 313.15 K) was 1178.3 ± 1.1 kg/m3, the viscosity ([1]; 323.15 K) was 3.067 ± 0.064 mPa·s and the mass density ([1]; 323.15 K) was 1168.9 ± 1.1 kg/m3. The viscosity ([1]; 333.15 K) was 2.719 ± 0.057 mPa·s, the mass density ([1]; 333.15 K) was 1159.4 ± 1.1 kg/m3 and the “vapor or sublimation pressure” value ([1]; 385 K) was 0.552 ± 0.6 kPa. For the same molecule, the “vapor or sublimation pressure” value ([1]; 395.1 K) was 1.02 ± 0.6 kPa, the “vapor or sublimation pressure” value ([1]; 405.2 K) was 1.77 ± 0.6 kPa and the “vapor or sublimation pressure” value ([1]; 415.3 K) was 2.92 ± 0.6 kPa. The “vapor or sublimation pressure” value ([1]; 425.5 K) was 4.61 ± 0.6 kPa, the “vapor or sublimation pressure” value ([1]; 434.6 K) was 6.98 ± 0.6 kPa and the “vapor or sublimation pressure” value ([1]; 445.1 K) was 10 ± 0.61 kPa. The “vapor or sublimation pressure” value ([1]; 464.5 K) was 20 ± 0.61 kPa, the “vapor or sublimation pressure” value ([1]; 478.2 K) was 30.05 ± 0.62 kPa and the “vapor or sublimation pressure” value ([1]; 489.4 K) was 40.17 ± 0.64 kPa. The “vapor or sublimation pressure” value ([1]; 505.8 K) was 60.05 ± 0.65 kPa, the “vapor or sublimation pressure” value ([1]; 511.5 K) was 69.06 ± 0.68 kPa and the “vapor or sublimation pressure” value ([1]; 517.3 K) was 78.1 ± 0.68 kPa. The “vapor or sublimation pressure” value ([1]; 523.3 K) was 88.01 ± 0.71 kPa, the “vapor or sublimation pressure” value ([1]; 530.8 K) was 103.54 ± 0.73 kPa and the “vapor or sublimation pressure” value ([1]; 530.9 K) was 101.3 kPa.
In the case of `CC(=O)C1CC1` [1-cyclopropyl ethanone] + CC(=O)C1CCOC1=O, the viscosity ([2]; 303.15 K) is reported as 0.5572 ± 0.012 mPa·s, the mass density ([2]; 303.15 K) is reported as 889.8 ± 1.1 kg/m3 and the viscosity ([2]; 313.15 K) is reported as 0.5015 ± 0.011 mPa·s. The mass density ([2]; 313.15 K) was 880.3 ± 1.1 kg/m3, the viscosity ([2]; 323.15 K) was 0.4524 ± 0.0096 mPa·s and the mass density ([2]; 323.15 K) was 870.6 ± 1.1 kg/m3. The viscosity ([2]; 333.15 K) was 0.3942 ± 0.0085 mPa·s and the mass density ([2]; 333.15 K) was 861.2 ± 1.1 kg/m3.
With `CC(=O)C1CC1` [1-cyclopropyl ethanone] the “vapor or sublimation pressure” value ([1]; 300 K) was 3.65 ± 0.6 kPa, the viscosity ([1]; 303.15 K) was 0.5572 ± 0.012 mPa·s and the mass density ([1]; 303.15 K) was 889.8 ± 1.1 kg/m3. For the same molecule, the “vapor or sublimation pressure” value ([1]; 310.1 K) was 6.06 ± 0.6 kPa, the viscosity ([1]; 313.15 K) was 0.5015 ± 0.011 mPa·s and the mass density ([1]; 313.15 K) was 880.3 ± 1.1 kg/m3. The “vapor or sublimation pressure” value ([1]; 320.8 K) was 9.95 ± 0.61 kPa, the viscosity ([1]; 323.15 K) was 0.4524 ± 0.0096 mPa·s and the mass density ([1]; 323.15 K) was 870.6 ± 1.1 kg/m3. The viscosity ([1]; 333.15 K) was 0.3942 ± 0.0085 mPa·s, the mass density ([1]; 333.15 K) was 861.2 ± 1.1 kg/m3 and the “vapor or sublimation pressure” value ([1]; 337 K) was 20.07 ± 0.62 kPa. For the same molecule, the “vapor or sublimation pressure” value ([1]; 347.7 K) was 30.05 ± 0.64 kPa, the “vapor or sublimation pressure” value ([1]; 355.6 K) was 40.07 ± 0.66 kPa and the “vapor or sublimation pressure” value ([1]; 362.1 K) was 49.78 ± 0.69 kPa. The “vapor or sublimation pressure” value ([1]; 367.6 K) was 59.85 ± 0.71 kPa, the “vapor or sublimation pressure” value ([1]; 372.6 K) was 70.04 ± 0.74 kPa and the “vapor or sublimation pressure” value ([1]; 376.9 K) was 80.03 ± 0.78 kPa. For the same molecule, the “vapor or sublimation pressure” value ([1]; 380.6 K) was 89.62 ± 0.81 kPa, the “vapor or sublimation pressure” value ([1]; 384.8 K) was 101.3 kPa and the “vapor or sublimation pressure” value ([1]; 385 K) was 102.18 ± 0.83 kPa.
`CC(=O)CCCCl` [1-chloro-4-pentanone] showed a viscosity ([1]; 303.15 K) of 1.582 ± 0.033 mPa·s, a mass density ([1]; 303.15 K) of 1051.3 ± 1.1 kg/m3 and a viscosity ([1]; 313.15 K) of 1.318 ± 0.028 mPa·s. The mass density ([1]; 313.15 K) was 1041.1 ± 1.1 kg/m3, the viscosity ([1]; 323.15 K) was 1.078 ± 0.023 mPa·s and the mass density ([1]; 323.15 K) was 1031.2 ± 1.1 kg/m3. The viscosity ([1]; 333.15 K) was 0.9667 ± 0.02 mPa·s, the mass density ([1]; 333.15 K) was 1020.8 ± 1.1 kg/m3 and the “vapor or sublimation pressure” value ([1]; 343.2 K) was 2.91 ± 0.6 kPa. The “vapor or sublimation pressure” value ([1]; 353.1 K) was 4.66 ± 0.6 kPa, the “vapor or sublimation pressure” value ([1]; 363.1 K) was 7.15 ± 0.6 kPa and the “vapor or sublimation pressure” value ([1]; 373.8 K) was 10.5 ± 0.61 kPa. For the same molecule, the “vapor or sublimation pressure” value ([1]; 393.8 K) was 20.79 ± 0.61 kPa, the “vapor or sublimation pressure” value ([1]; 404.6 K) was 30.23 ± 0.63 kPa and the “vapor or sublimation pressure” value ([1]; 413.8 K) was 41.16 ± 0.64 kPa. For the same molecule, the “vapor or sublimation pressure” value ([1]; 423.8 K) was 52.6 ± 0.64 kPa, the “vapor or sublimation pressure” value ([1]; 433.5 K) was 62.27 ± 0.66 kPa and the “vapor or sublimation pressure” value ([1]; 438.1 K) was 72.35 ± 0.71 kPa. The “vapor or sublimation pressure” value ([1]; 443.6 K) was 81.58 ± 0.7 kPa, the “vapor or sublimation pressure” value ([1]; 449.3 K) was 92.85 ± 0.73 kPa and the “vapor or sublimation pressure” value ([1]; 454 K) was 103.42 ± 0.75 kPa.

From the NIST ThermoML archive (doi:10.1021/acs.jced.7b00344)
